{
  "source": "patent US8598118B2",
  "about": "“Hepatocyte growth factor mimics as therapeutic agents” (Washington State University, priority 2011, dated 2013)",
  "key": {"[1]": {"experiment": "Blood stability studies (heparinized rat blood, 37° C.)", "assay_type": "in vitro ADME", "settings": "heparinized whole blood, single phase exponential decay, read-out: stability t1/2 in blood", "quoted_text": "At the end of each incubation, 20 μL of Nle^1-AngIV (100 μg/mL) was added to each sample as an internal standard. […] All samples were centrifuged at 4° C., 2300×g for 5 min and the supernatants were transferred to clean tubes.\nSamples were then separated by HPLC on an Econosphere C18 (100 mm×2.1 mm) from Grace Davison Discovery Science (Deerfield, Ill.). […] The mobile phase consisted of HPLC water (Sigma St. Louis, Mo.) with 0.1% trifluoroacetic or 0.1% heptafluorobutyric acid (Sigma St. Louis, Mo.) and varying concentrations of ACN or methanol. Separation was carried out using a gradient method, at ambient temperature and a flow rate of 0.3 mL/min (see below for more information). Stability half-lives were determined assuming a normal single phase exponential decay using Prism 5 graphical/statistical program (GraphPad, San Diego, Calif.)."}, "Met": {"test_system": "Met", "experiment": "Inhibition of HGF-dependent Met phosphorylation in HEK293 cells", "assay_type": "cell-based, human", "settings": "10 min", "procedure": "HEK293 cells were seeded in 6 well tissue culture plates and grown to 95% confluency in DMEM containing 10% FBS. The cells were serum deprived for 24 h prior to the treatment to reduce the basal levels of phospho-Met. Following serum starvation, cocktails comprised of vehicle and HGF with/without 6-AH analogs were prepared and pre-incubated for 30 min at room temperature. The cocktail was then added to the cells for 10 min to stimulate the Met receptor and downstream proteins. Cells were harvested using RIPA lysis buffer (Millipore; Billerica, Mass.) fortified with phosphatase inhibitor cocktails 1 and 2 (Sigma-Aldrich; St. Louis, Mo.). The lysate was clarified by centrifugation at 15,000 nx g for 15 min, protein concentrations were determined using the BCA total protein assay (Pierce), and then appropriate volumes of the lysates were diluted with 2× reducing Laemmli buffer and heated for ten min at 95° C. Samples containing identical amounts of protein were resolved using SDS-PAGE (Criterion, BioRad Laboratories), transferred to nitrocellulose, and blocked in Tris-buffered saline (TBS) containing 5% milk for 1 h at room temperature. The phospho-Met antibody were added to the blocking buffer at a final concentration of 1:1000 and incubated at 4° C. overnight with gentle agitation. The membranes were then washed several times with water and TBS ([…], 0.05% Tween-20), a 1:5000 dilution of horseradish-peroxidase conjugated goat anti-rabbit antiserum was added, and the membranes further incubated for 1 h at room temperature. Proteins were visualized using the Supersignal West Pico Chemiluminescent Substrate system (Pierce, Fenton, Mo.) and molecular weights determined by comparison to protein ladders (BenchMark, Invitrogen, and Kaleidoscope, BioRad). Film images were digitized and analyzed using a UVP phosphoimager."}, "MDCK cells [2]": {"test_system": "MDCK cells", "experiment": "HGF-dependent MDCK cell proliferation (MTT)", "assay_type": "cell-based, canine", "settings": "analog 10^−10M, 4 days", "procedure": "5000 MDCK cells were seeded into the wells of a 96 well plates in 10% FBS DMEM. To induce cellular quiescence, the cells were serum deprived for 24 h prior to initiating the treatments. Following serum starvation, 10 ng/ml HGF alone and with various concentrations of 6-AH analogs or PBS vehicle were added to the media. The cells were allowed to grow under these conditions for 4 days with a daily addition of 6-AH analogs. On the fourth day, 1 mg/ml of […] (MTT, Sigma-Aldrich) prepared in PBS was added to the cells and incubated for 4 h. Dimethyl sulfoxide diluted in a 0.01M glycine buffer was added to solubilize the cell membranes and the absorbance of reduced MTT in the buffer was quantitated at 590 nm using a plate reader (Biotek Synergy 2, Winooski, Vt.). HGF-dependent proliferation was determined by subtracting the basal proliferation (in the absence of HGF) from total proliferation rates in groups containing HGF."}, "MDCK cells [3]": {"test_system": "MDCK cells", "experiment": "Inhibition of HGF-dependent scattering in MDCK cells", "assay_type": "cell-based, canine", "settings": "20 ng/ml HGF, 48 h", "procedure": "(§1) MDCK cells were grown to 100% confluency on the coverslips in six-well plates and washed twice with PBS. The confluent coverslips were then aseptically transferred to new six well plates containing 900 μl serum free DMEM. Norleual, Hinge peptide, and/or HGF (20 ng/ml) were added to appropriate wells. Control wells received PBS vehicle. Plates were incubated at 37° C. with 5% CO2 for 48 hours. Media was removed and cells were fixed with methanol. Cells were stained with Diff-Quik Wright-Giemsa (Dade-Behring, Newark, Del.) and digital images were taken. Coverslips were removed with forceps and more digital images were captured. Pixel quantification of images was achieved using Image J and statistics were performed using Prism 5 and InStat v.3.05.\nas §1, with “h.” for “hours.”, “v.3.05 (GraphPad; San Diego, Calif.).” for “v.3.05.”"}, "[4]": {"settings": "rat, iv, 24 mg/kg", "quoted_text": "(§2) Male Sprague-Dawley rats (250+ g) were allowed food (Harlan Teklad rodent diet) and water ad libitum in our AAALAC certified animal facility. Rats were housed in temperature-controlled rooms with a 12 h light/dark cycle. The right jugular veins of the rats were catheterized with sterile polyurethane Hydrocoat™ catheters (Access Technologies, Skokie, Ill., USA) under ketamine (Fort Dodge Animal Health, Fort Dodge, Iowa, USA) and isoflurane (Vet One™, MWI, Meridian, Id., USA) anesthesia. The catheters were exteriorized through the dorsal skin. The catheters were flushed with heparinized saline before and after blood sample collection and filled with heparin-glycerol locking solution (6 mL glycerol, 3 mL saline, 0.5 mL gentamycin (100 mg/mL), 0.5 mL heparin (10,000 u/mL)) when not used for more than 8 h. The animals were allowed to recover from surgery for several days before use in any experiment, and were fasted overnight prior to the pharmacokinetic experiment.\n(§3) Catheterized rats were placed in metabolic cages prior to the start of the study and time zero blood samples were collected. […] After dosing, blood samples were collected as follows (times and blood volumes collected are listed in chronological order):\n(§4) After each blood sample was taken, the catheter was flushed with saline solution and a volume of saline equal to the volume of blood taken was injected (to maintain total blood volume).\n(§5) Upon collection into polypropylene microfuge tubes without heparin, blood samples were immediately centrifuged at 4° C., 2300×g for 5 min to remove any cells and clots and the serum transferred into clean microcentrifuge tubes. A volume of internal standard (Nle^1-AngIV, 100 μg/mL) equal to 0.1 times the sample serum volume was added. A volume of ice-cold acetonitrile equal to four times the sample serum volume was then added and the sample vortexed vigorously for 30 s. The supernatants were transferred to clean tubes, then held on ice until the end of the experiment, and stored at 4° C. afterward until further processing.\n(§6) All samples were evaporated to dryness in a Savant SpeedVac® concentrator. […] The samples were then transferred to HPLC autosampler vials and 100 μl was injected into the HPLC system a total of 2 times (2 HPLC/MS analyses) for each sample.\n(§7) Data collection and integration were achieved using Shimadzu LCMS solution software. The analytical column used was an Econosphere C18 (100 mm×2.1 mm) from Grace Davison Discovery Science (Deerfield, Ill., USA). The mobile phase consisted of HPLC grade methanol and water with 0.1% trifluoroacetic acid. Separation was carried out using a non-isocratic method (40%-50% methanol over 10 min) at ambient temperature and a flow rate of 0.3 mL/min. […] Data were normalized based on the recovery of the internal standard.\n(§8) Pharmacokinetic analysis was performed using data from individual rats. The mean and standard deviation (SD) were calculated for the group."}, "in vivo": {"experiment": "in vivo", "settings": "male, Sprague-Dawley, rat, iv, 24 mg/kg", "quoted_text": "as §2, §3, §4, §5, §6, §7, §8"}, "[5]": {"experiment": "Stability of Dihexa in the blood (not shown)", "assay_type": "in vitro ADME"}, "[6]": {"test_system": "B16-F10 murine melanoma cells", "experiment": "B16-F10 melanoma lung colony formation", "assay_type": "in vivo", "settings": "daily IP 10 μg/kg/day and 100 μg/kg/day, 14 days, C57BL/6 mice", "procedure": "Six to eight month old C57BL/6 mice were injected with 400,000 B16-F10 cells in 200 μl PBS by tail vein injection and subsequently received daily intraperitoneal injections of either D-Nle-X-Cys-NH—(CH2)5—CONH2 (10 μg/kg and 100 μg/kg) or a PBS vehicle control. Two weeks later, mice were anesthetized and lungs were perfused with PBS and removed. Photos were taken and lungs were solubilized in 1% Triton x-100, 20 mM Tris, 0.15 M NaCl, 2 mM EDTA, and 0.02% sodium azide. Samples were disrupted by sonication (Mixonix, Farmingdale, N.Y.) and spun. The supernatant was transferred to a 96 well plate and melanin absorbance at 410 nm was measured using a plate reader."}},
  "note": "Where a SMILES comes first, the peptide text is derived from it. [ ]: non-standard residue; d: D form. The star is where a group is joined. dNle = CCCC[C@@H](N)C(=O)O; Hexanoyl = CCCCCC(=O)*; Ahx = NCCCCCC(=O)O",
  "data": [
    {"compound": "CCCC[C@@H](N)C(=O)N[C@@H](Cc1ccc(O)cc1)C(=O)N[C@H](C(=O)NCCCCCC(N)=O)[C@@H](C)CC", "note": "(H-[dNle]YI[Ahx]-NH2)", "values": [
      {"measurement": "half-life", "setting": "[1]", "value": 80, "unit": "min"},
      {"measurement": "inhibition of HGF-dependent Met auto-phosphorylation", "setting": "Met", "value": "able to block Met auto-phosphorylation"},
      {"measurement": "inhibition of HGF-dependent MDCK cell proliferation", "setting": "MDCK cells [2]", "value": "marked inhibitory activity"},
      {"measurement": "inhibition of HGF-dependent MDCK cell scattering", "setting": "MDCK cells [3]", "value": "different from the HGF alone group but not different from the control group"},
      {"measurement": "t½ (in vivo elimination half-life)", "setting": "[4]; male, Sprague-Dawley", "value": "1012.0 ± 391.4", "unit": "min"},
      {"measurement": "KE", "setting": "[4]; in vivo", "value": "0.001 ± 0.0002", "unit": "min⁻¹"},
      {"measurement": "AUC(0-inf)", "setting": "in vivo", "value": 11500, "unit": "ng·h/mL"},
      {"measurement": "Vd", "setting": "in vivo", "value": "104 ± 65", "unit": "L/kg"},
      {"measurement": "clearance", "setting": "in vivo", "value": "58.3 ± 15.6", "unit": "mL/min/kg"},
      {"measurement": "half-life", "setting": "in vivo", "value": 1010, "unit": "min"}
    ]},
    {"compound": "CCCCCC(=O)N[C@@H](Cc1ccc(O)cc1)C(=O)N[C@H](C(=O)NCCCCCC(N)=O)[C@@H](C)CC", "note": "[Dihexa, N-hexanoic-Tyr-Ile-(6)-aminohexanoic amide] (Hexanoyl-Tyr-Ile-[Ahx]-NH2)", "values": [
      {"measurement": "stable in the blood", "setting": "[5]", "value": "over 5 hours"}
    ]},
    {"compound": "CCCC[C@@H](N)C(=O)N[C@@H](CS)C(=O)N[C@H](C(=O)NCCCCCC(N)=O)[C@@H](C)CC", "note": "[D-Nle-Cys-Ile-NH—(CH2)5—CONH2] (H-[dNle]CI[Ahx]-NH2)", "values": [
      {"measurement": "inhibition of HGF-dependent Met auto-phosphorylation", "setting": "Met", "value": "able to block Met auto-phosphorylation"},
      {"measurement": "inhibition of HGF-dependent MDCK cell proliferation", "setting": "MDCK cells [2]", "value": "marked inhibitory activity"},
      {"measurement": "inhibition of HGF-dependent MDCK cell scattering", "setting": "MDCK cells [3]", "value": "different from the HGF alone group but not different from the control group"},
      {"measurement": "inhibition of B16-F10 melanoma lung colonization", "setting": "[6]", "value": "radically prevented lung colonization"},
      {"measurement": "inhibition of B16-F10 melanoma lung colonization", "setting": "[6]; listed as D-Nle-Cys-Ile-(6)-amino-hexanoic amide", "value": "obvious reduction in melanoma colonies"}
    ]}
  ]
}
